Experimental data: patent US20250188088A1, “COMPOUND AND USE THEREOF” (ONQUALITY PHARMACEUTICALS CHINA LTD., priority 2022, published 2025)
Converted amounts (≈) assume the structure as drawn. Read-outs that look alike come from different tables or passages of the source.

Experiments:
[1] = Log D measurement (n-octanol/PBS shake, LC-MS/MS); format: physicochemical; details: pH 7.4, read-out: LogD7.4 (Oct/buff)
Procedure: Two replicates of test compounds (DMSO stock solution 10 mM, 2 μL/well) and QCs (DMSO 10 mM, 2 μL/well) were transferred from the storage tube to a 96-well cluster tube. Add buffer-saturated n-octanol ([…]) and n-octanol-saturated PBS (149 μL/well) to each well; vortex mix the cluster tube for 1 minute, mix by shaking on a plate shaker at 880 rpm for one hour, and then centrifuge at 4000 rpm for 10 minutes. Remove the cover pad, accurately measure a certain amount of n-octanol layer samples (4 μL/well) into a 96-well plate containing n-octanol internal standard diluent (796 μL/well); accurately measure a certain amount of buffer salt layer samples (30 μL/well) into a 96-well plate containing buffer internal standard diluent (570 μL/well); the dilution factor of the sample can be adjusted according to different properties of the sample. Samples were analyzed using a triple quadrupole mass spectrometer. The processed sample solution was analyzed by the fast isocratic elution and small column retention method, the concentration correction was carried out by dilution factor and internal standard, and the ratio of the corrected peak area was used to calculate the final result (Log D/Log P value).

[2] = Thermodynamic solubility assay (PBS pH 6.5; isopropyl myristate); format: physicochemical; details: thermodynamic from solid
Procedure: Thermodynamic Solubility Assay
Weigh not less than 2 mg of the sample powder into a Whatman Mini-UniPrep vial. If it is required to test the thermodynamic solubility of samples in multiple buffers, a separate vial is needed for each test; add 450 μL of buffer to each Whatman Mini-UniPrep vial, respectively; after that, install the piston cap of Whatman Mini-UniPrep and press it above the liquid level, so that the filter is in contact with the buffer during shaking; shake the solubility sample by vortexing for 1 minute.
Inject 3 UV standard solutions from low to high concentrations into the HPLC, then inject the diluent and supernatant of the test compound, with two replicates of test sample; and integrate the UV peaks. Simulate a standard curve and calculate the thermodynamic solubility of the sample.

[3] = tested on: rash caused by small molecule EGFR inhibitors; experiment: Prevention of rash caused by small molecule EGFR inhibitors, topical ointment, rat model; format: in vivo, SD rats
Source text: An Experiment to Verify the Prevention of Rash Caused by Small Molecule EGFR Inhibitors with Topical Administration of Compounds of the Present Application on a Rat Animal Model A rat animal model was established. After daily gavage of a small molecule EGFR inhibitor to female SD rats for […], the rats developed extensive rashes on their backs several days later (picture shown in FIG. 1). […] Similar to humans, rats developed skin rashes on their faces and bodies after oral administration of small molecule EGFR inhibitors. Both of them had the same etiology and very similar symptoms. Therefore, rats are a proper animal model for mimicking EGFR inhibitor-induced rash. After the SD rats were fed and adapted for one week (about 200 g), the rats were divided into 10 rats per group. The hair on the back of rats was gently removed with an electric razor one day before the experiment, and then an intragastric administration test was carried out. EGFR inhibitors were dissolved in a sterile aqueous solution, and diluted with PBS buffer; the amount of each gavage was not more than 2 mL, and the dosage was shown in Table 1. The experiment comprised the administration group and the control group. After intragastric administration, apply the ointment (type and concentration are shown in Table 1) of the compound used in the present application to the backs (about 3 cm*3 cm) of rats in the administration group; apply blank matrix ointment (about 0.5 g) to the backs (about 3 cm*3 cm) of rats in the control group; fix the rats with a fixed cylinder for about 4 hours after drug application, release the rats after 4 hours, wipe off the residual drug at the application site with clean water, and put them back into the cage. The frequency of intragastric administration of EGFR inhibitors is shown in Table 1, but the compounds of the present application and blank matrix ointment are applied only once a day. The intragastric administration and application test were repeated daily until an obvious rash appeared in the control group. […] Table 1 lists the animal experiment combination of various small molecule EGFR inhibitors and the compound ointment of the present application, as well as the corresponding experiment results (wherein, the value in the control rate column=the number of rats whose rash is milder in the administration group than that in the control group/the total number of rats in the administration group×100%).

[4] = tested on: rash caused by monoclonal EGFR inhibitors; experiment: Prevention of rash caused by monoclonal EGFR inhibitors, topical ointment, rat model; format: in vivo, SD rats
How it was run: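 SD rats (~200 g), backs shaved, 10 per group, given EGFR monoclonal antibody i.v. (tail vein) twice weekly, with compound ointment or blank matrix ointment applied daily to a ~3×3 cm dorsal area, held 4 h then wiped off, until control rash appeared. Control rate = % of treated rats with milder rash than controls.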

[5] = aqueous buffer, PBS buffer pH 6.5, about 25° C., read-out: Thermodynamic Solubility pH = 6.5
[6] = oil or lipid, isopropyl myristate as vehicle, about 25° C., read-out: Thermodynamic Solubility in Isopropyl Myristate

logD [1]	solubility thermodynamic at 24 h [2, 5] [µg/mL]	solubility thermodynamic at 24 h [2, 6] [µg/mL]	Structure (SMILES)	other results
1.45	645 (≈ 1210 µM)	878 (≈ 1650 µM)	C[C@@H]1CCN(C(=O)CC#N)C[C@@H]1N(C)c1ncnc2c1ccn2C(=O)N(C)CCOC(=O)C1CC(F)(F)C1 [Compound A1]	
1.86	240 (≈ 429 µM)	1020 (≈ 1820 µM)	C[C@@H]1CCN(C(=O)CC#N)C[C@@H]1N(C)c1ncnc2c1ccn2C(=O)N(C)CCOC(=O)C1CCC(F)(F)CC1 [Compound A2]	
2.1	304 (≈ 597 µM)	2340 (≈ 4580 µM)	C[C@@H]1CCN(C(=O)CC#N)C[C@@H]1N(C)c1ncnc2c1ccn2C(=O)N(C)CCOC(=O)C1(C)CCC1 [Compound A3]	
2.05	147 (≈ 289 µM)	1200 (≈ 2350 µM)	C[C@@H]1CCN(C(=O)CC#N)C[C@@H]1N(C)c1ncnc2c1ccn2C(=O)N(C)CCOC(=O)CC1CCC1 [Compound A5]	
2.72	16 (≈ 30.4 µM)	339 (≈ 646 µM)	CCCC(CC)C(=O)OCCN(C)C(=O)n1ccc2c(N(C)[C@H]3CN(C(=O)CC#N)CC[C@H]3C)ncnc21 (stereo partly drawn) [Compound A12]	Control Rate ([3]; Afatinib 40 mg/kg once a day, ointment 1.0 wt% once a day, 14 days): 60%; Control Rate ([3]; Afatinib 40 mg/kg once a day, ointment 3.0 wt% once a day, 14 days): 75%; Control Rate ([3]; Afatinib 40 mg/kg once a day, ointment 5.0 wt% once a day, 14 days): 90%; Control Rate ([3]; EAI045 80 mg/kg once a day, ointment 1.0 wt% once a day, 11 days): 60%; Control Rate ([3]; EAI045 80 mg/kg once a day, ointment 10.0 wt% once a day, 11 days): 70%; Control Rate ([3]; Erlotinib 70 mg/kg once a day, ointment 0.3 wt% once a day, 14 days): 20%; Control Rate ([3]; Erlotinib 70 mg/kg once a day, ointment 3.0 wt% once a day, 14 days): 50%; Control Rate ([3]; Osimertinib 60 mg/kg twice a day, ointment 0.3 wt% once a day, 10 days): 50%; Control Rate ([3]; Osimertinib 60 mg/kg twice a day, ointment 5.0 wt% once a day, 10 days): 80%; Control Rate ([4]; Cetuximab 100 mg/kg twice a week via tail vein, ointment 0.3 wt% once a day, 10 days): 20%; Control Rate ([4]; Cetuximab 100 mg/kg twice a week via tail vein, ointment 3.0 wt% once a day, 10 days): 70%; Control Rate ([4]; Cetuximab 100 mg/kg twice a week via tail vein, ointment 10.0 wt% once a day, 10 days): 85%; Control Rate ([4]; Panitumumab 10 mg/kg twice a week via tail vein, ointment 1.0 wt% once a day, 14 days): 50%; Control Rate ([4]; Panitumumab 10 mg/kg twice a week via tail vein, ointment 5.0 wt% once a day, 14 days): 60%; Control Rate ([4]; Panitumumab 10 mg/kg twice a week via tail vein, ointment 10.0 wt% once a day, 14 days): 60%

The remaining lines, values behind:

Structure (SMILES)	logD [1]	solubility thermodynamic at 24 h [2, 5] [µg/mL]	solubility thermodynamic at 24 h [2, 6] [µg/mL]	other results
C[C@@H]1CCN(C(=O)CC#N)C[C@@H]1N(C)c1ncnc2c1ccn2C(=O)N(C)CCOC(=O)C1CCC1 [Compound A4]	2.35	486 (≈ 981 µM)	1250 (≈ 2520 µM)	
C[C@@H]1CCN(C(=O)CC#N)C[C@@H]1N(C)c1ncnc2c1ccn2C(=O)N(C)CCOC(=O)C1CCCC1 [Compound A6]	1.95	300 (≈ 589 µM)	1530 (≈ 2990 µM)	
C[C@@H]1CCN(C(=O)CC#N)C[C@@H]1N(C)c1ncnc2c1ccn2C(=O)N(C)CCOC(=O)C1CCOC1 (stereo partly drawn) [Compound A8]	0.56	2940 (≈ 5750 µM)	208 (≈ 407 µM)	
CCCCCC(=O)OCCN(C)C(=O)n1ccc2c(N(C)[C@H]3CN(C(=O)CC#N)CC[C@H]3C)ncnc21 [Compound A9]	1.69	234 (≈ 457 µM)	1380 (≈ 2690 µM)	
CCC(CC)C(=O)OCCN(C)C(=O)n1ccc2c(N(C)[C@H]3CN(C(=O)CC#N)CC[C@H]3C)ncnc21 [Compound A10]	2.07	233 (≈ 456 µM)	1830 (≈ 3580 µM)	
CCC(C)C(=O)OCCN(C)C(=O)n1ccc2c(N(C)[C@H]3CN(C(=O)CC#N)CC[C@H]3C)ncnc21 (stereo partly drawn) [Compound A11]	1.87	170 (≈ 341 µM)	1590 (≈ 3200 µM)	
CCC(=O)OCCN(C)C(=O)n1ccc2c(N(C)[C@H]3CN(C(=O)CC#N)CC[C@H]3C)ncnc21 [Compound A20]	0.97	2430 (≈ 5180 µM)	779 (≈ 1660 µM)	
